Source: patent US20150105252A1, “SUBSTITUTED PYRAZOLES AS HERBICIDES” (E I DU PONT DE NEMOURS AND COMPANY, priority 2013, published 2015)

What was measured:
[1] = tested on: wheat; assay: Test A preemergence; type: in vivo, Triticum aestivum; conditions: preemergence; for Wheat plant response rating (0 to 100 scale): 125 g ai/ha, visual injury approx. 10 days after treatment; for Wheat plant response rating: 500 g ai/ha, visual injury after approx. 10 days, 0 to 100 scale (0 no effect, 100 complete control)
Method in brief: (§1)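 Ratings express plant response from 0 (no effect) to 100 (complete control), judged visually against untreated controls after approximately 10 days in the greenhouse. Preemergence applications were made as directed soil sprays onto seeded loam–sand mix, and postemergence applications onto 2–10 cm plants at one- to two-leaf stage.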

[2] = tested on: soybean; assay: Test C postemergence; type: in vivo, Glycine max; conditions: postemergence; for Plant response rating, Soybean: 250 g ai/ha, scale 0 to 100 (0 no effect, 100 complete control); for Soybean plant response rating: 125 g ai/ha, scale 0 to 100, 0 no effect, 100 complete control
Method in brief: (§2)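 Postemergence values come from plants sprayed at the 1- to 4-leaf stage (2–18 cm) in peat moss–vermiculite medium; preemergence values from seeds treated in a loam–sand blend. Both evaluated visually against controls after 13–15 greenhouse days, scale 0–100.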

[3] = tested on: corn; assay: Test C preemergence; type: in vivo, Zea mays
Method in brief: as §2

[4] = tested on: nutsedge, yellow; assay: Test C preemergence; type: in vivo, Cyperus esculentus
Method in brief: as §2

[5] = tested on: waterhemp; assay: Test C preemergence; type: in vivo, Amaranthus rudis
Method in brief: as §2

[6] = tested on: wheat; assay: Test A postemergence; type: in vivo, Triticum aestivum
Method in brief: as §1

[7] = tested on: blackgrass; assay: Test C postemergence; type: in vivo, Alopecurus myosuroides; conditions: for Plant response rating (scale of 0 to 100 where 0 is no effect and 100 is complete control), Blackgrass: Postemergence, 31 g ai/ha, visually evaluated after 13 to 15 days; for Blackgrass plant response rating / Plant response rating, Blackgrass: postemergence; for Blackgrass plant response rating: 62 g ai/ha, scale 0 to 100
Method in brief: as §2

[8] = tested on: oilseed rape; assay: Test C postemergence; type: in vivo, Brassica napus; conditions: postemergence; for Oilseed Rape plant response rating: 62 g ai/ha, scale 0 to 100
Method in brief: as §2

[9] = tested on: velvetleaf; assay: Test C postemergence; type: in vivo, Abutilon theophrasti; conditions: postemergence; for Plant response rating, Velvetleaf: 250 g ai/ha, scale 0 to 100 (0 no effect, 100 complete control); for Velvetleaf plant response rating: scale 0 to 100
Method in brief: as §2

[10] = tested on: crabgrass, large; assay: Test A preemergence; type: in vivo, Digitaria sanguinalis; conditions: preemergence; for Crabgrass, Large plant response rating (0 to 100 scale): 125 g ai/ha, visual injury approx. 10 days after treatment; for Crabgrass, Large plant response rating: 500 g ai/ha, visual injury after approx. 10 days, 0 to 100 scale (0 no effect, 100 complete control)
Method in brief: as §1

[11] = tested on: kochia; assay: Test C postemergence; type: in vivo, Kochia scoparia; conditions: for Plant response rating (scale of 0 to 100 where 0 is no effect and 100 is complete control), Kochia: Postemergence, 31 g ai/ha, visually evaluated after 13 to 15 days; for Kochia plant response rating / Plant response rating, Kochia: postemergence; for Kochia plant response rating: 62 g ai/ha, scale 0 to 100
Method in brief: as §2

[12] = tested on: lambsquarters; assay: Test C preemergence; type: in vivo, Chenopodium album
Method in brief: as §2

[13] = tested on: velvetleaf; assay: Test C preemergence; type: in vivo, Abutilon theophrasti
Method in brief: as §2

[14] = tested on: barnyardgrass; assay: Test C postemergence; type: in vivo, Echinochloa crus-galli; conditions: for Plant response rating (scale of 0 to 100 where 0 is no effect and 100 is complete control), Barnyardgrass: Postemergence, 31 g ai/ha, visually evaluated after 13 to 15 days; for Barnyardgrass plant response rating / Plant response rating, Barnyardgrass: postemergence; for Barnyardgrass plant response rating: 62 g ai/ha, scale 0 to 100
Method in brief: as §2

[15] = preemergence, 31 g ai/ha, visual rating, scale 0 to 100 (0 no effect, 100 complete control), 13 to 15 days
[16] = preemergence, 62 g ai/ha, scale 0 to 100 (0 no effect, 100 complete control), 13 to 15 days
[17] = preemergence, 125 g ai/ha, 13 to 15 days, scale 0 to 100, 0 = no effect, 100 = complete control
[18] = preemergence, 250 g ai/ha, scale 0 to 100, 0 is no effect, 100 is complete control
[19] = Postemergence, 500 g ai/ha, 0 to 100 scale (0 no effect, 100 complete control)
[20] = postemergence, 125 g ai/ha, about 10 days, visual rating on 0 to 100 scale (0 no effect, 100 complete control)
[21] = 250 g ai/ha, scale 0 to 100 (0 no effect, 100 complete control)
[22] = 125 g ai/ha, scale 0 to 100, 0 no effect, 100 complete control
[23] = Preemergence, rate head not shown (block before 16 g ai/ha), scale 0 to 100

## CCNC(=O)c1cc(CC)n(Cc2cc(C(F)(F)F)nn2C)n1 [Compound 154]
[1]
  Wheat plant response rating (0 to 100 scale): 0
  Wheat plant response rating: 100
[2]
  Plant response rating, Soybean: 90
  Soybean plant response rating: 85
[3]; [15]
  Corn plant response rating: 0
[3]; [16]
  Corn plant response rating: 5
[3]; [17]
  Plant response rating, Corn: 40
[3]; [18]
  Corn plant response rating: 95
[4]; [15]
  Nutsedge, Yellow plant response rating: 0
[4]; [16]
  Nutsedge, Yellow plant response rating: 15
[4]; [17]
  Plant response rating, Nutsedge, Yellow: 35
[4]; [18]
  Nutsedge, Yellow plant response rating: 60
[5]; [15]
  Waterhemp plant response rating: 85
[5]; [16]
  Waterhemp plant response rating: 100
[5]; [17]
  Plant response rating, Waterhemp: 100
[5]; [18]
  Waterhemp plant response rating: 100
[6]; [19]
  Wheat plant response rating: 100
[6]; [20]
  Wheat plant response rating: 20
[7]
  Plant response rating (scale of 0 to 100 where 0 is no effect and 100 is complete control), Blackgrass: 0
  Blackgrass plant response rating: 0
[7]; [21]
  Plant response rating, Blackgrass: 40
[7]; [22]
  Plant response rating, Blackgrass: 10
[8]
  Oilseed Rape plant response rating: 45
[8]; [21]
  Plant response rating, Oilseed Rape: 70
[8]; [22]
  Plant response rating, Oilseed Rape: 60
[9]
  Plant response rating, Velvetleaf: 55
  Velvetleaf plant response rating: 25
[10]
  Crabgrass, Large plant response rating (0 to 100 scale): 100
  Crabgrass, Large plant response rating: 100
[11]
  Plant response rating (scale of 0 to 100 where 0 is no effect and 100 is complete control), Kochia: 80
  Kochia plant response rating: 85
[11]; [21]
  Plant response rating, Kochia: 95
[11]; [22]
  Plant response rating, Kochia: 85
[12]; [15]
  Lambsquarters plant response rating: 65
[12]; [16]
  Lambsquarters plant response rating: 98
[12]; [17]
  Plant response rating, Lambsquarters: 100
[12]; [18]
  Lambsquarters plant response rating: 98
[13]; [15]
  Velvetleaf plant response rating: 10
[13]; [16]
  Velvetleaf plant response rating: 40
[13]; [17]
  Plant response rating, Velvetleaf: 90
[13]; [18]
  Velvetleaf plant response rating: 100
[14]
  Plant response rating (scale of 0 to 100 where 0 is no effect and 100 is complete control), Barnyardgrass: 5
  Barnyardgrass plant response rating: 5
[14]; [21]
  Plant response rating, Barnyardgrass: 10
[14]; [22]
  Plant response rating, Barnyardgrass: 5

## CCCNC(=O)c1cc(CCF)n(Cc2ccnc(C(F)(F)F)c2)n1 [Compound 177]
[1]
  Wheat plant response rating (0 to 100 scale): 10
  Wheat plant response rating: 100
[2]
  Plant response rating, Soybean: 95
  Soybean plant response rating: 90
[3]; [15]
  Corn plant response rating: 5
[3]; [16]
  Corn plant response rating: 40
[3]; [17]
  Plant response rating, Corn: 90
[3]; [18]
  Corn plant response rating: 98
[4]; [15]
  Nutsedge, Yellow plant response rating: 5
[4]; [16]
  Nutsedge, Yellow plant response rating: 60
[4]; [17]
  Plant response rating, Nutsedge, Yellow: 80
[4]; [18]
  Nutsedge, Yellow plant response rating: 95
[5]; [15]
  Waterhemp plant response rating: 98
[5]; [16]
  Waterhemp plant response rating: 98
[5]; [17]
  Plant response rating, Waterhemp: 98
[5]; [18]
  Waterhemp plant response rating: 100
[6]; [19]
  Wheat plant response rating: 100
[6]; [20]
  Wheat plant response rating: 50
[7]
  Plant response rating (scale of 0 to 100 where 0 is no effect and 100 is complete control), Blackgrass: 20
  Blackgrass plant response rating: 15
[7]; [21]
  Plant response rating, Blackgrass: 35
[7]; [22]
  Plant response rating, Blackgrass: 20
[8]
  Oilseed Rape plant response rating: 50
[8]; [21]
  Plant response rating, Oilseed Rape: 70
[8]; [22]
  Plant response rating, Oilseed Rape: 60
[9]
  Plant response rating, Velvetleaf: 60
  Velvetleaf plant response rating: 45
[10]
  Crabgrass, Large plant response rating (0 to 100 scale): 100
  Crabgrass, Large plant response rating: 100
[11]
  Plant response rating (scale of 0 to 100 where 0 is no effect and 100 is complete control), Kochia: 60
  Kochia plant response rating: 85
[11]; [21]
  Plant response rating, Kochia: 90
[11]; [22]
  Plant response rating, Kochia: 90
[12]; [15]
  Lambsquarters plant response rating: 85
[12]; [16]
  Lambsquarters plant response rating: 98
[12]; [17]
  Plant response rating, Lambsquarters: 98
[12]; [18]
  Lambsquarters plant response rating: 98
[13]; [15]
  Velvetleaf plant response rating: 0
[13]; [16]
  Velvetleaf plant response rating: 35
[13]; [17]
  Plant response rating, Velvetleaf: 50
[13]; [18]
  Velvetleaf plant response rating: 100
[14]
  Plant response rating (scale of 0 to 100 where 0 is no effect and 100 is complete control), Barnyardgrass: 5
  Barnyardgrass plant response rating: 5
[14]; [21]
  Plant response rating, Barnyardgrass: 20
[14]; [22]
  Plant response rating, Barnyardgrass: 10

## CCc1cc(C(=O)NCC(F)(F)F)nn1Cc1ccnc(Br)c1 [Compound 224]
[1]
  Wheat plant response rating (0 to 100 scale): 30
[2]
  Plant response rating, Soybean: 60
  Soybean plant response rating: 70
[3]; Preemergence, rate head not shown (block before 16 g ai/ha), scale 0 to 100, 100 is complete control
  Plant response rating, Corn: 0
[3]; [16]
  Corn plant response rating: 5
[3]; [17]
  Plant response rating, Corn: 15
[3]; [18]
  Corn plant response rating: 60
[4]; [23]
  Plant response rating, Nutsedge, Yellow: 85
[4]; [16]
  Nutsedge, Yellow plant response rating: 80
[4]; [17]
  Plant response rating, Nutsedge, Yellow: 70
[4]; [18]
  Nutsedge, Yellow plant response rating: 90
[5]; [23]
  Plant response rating, Waterhemp: 100
[5]; [16]
  Waterhemp plant response rating: 100
[5]; [17]
  Plant response rating, Waterhemp: 100
[5]; [18]
  Waterhemp plant response rating: 100
[6]; Postemergence, 125 g ai/ha, 0 to 100 scale, 0 no effect, 100 complete control
  Wheat plant response rating: 30
[6]; [19]
  Wheat plant response rating: 90
[7]
  Plant response rating (scale of 0 to 100 where 0 is no effect and 100 is complete control), Blackgrass: 5
  Blackgrass plant response rating: 5
[7]; [21]
  Plant response rating, Blackgrass: 20
[7]; [22]
  Plant response rating, Blackgrass: 5
[8]
  Oilseed Rape plant response rating: 50
[8]; [21]
  Plant response rating, Oilseed Rape: 55
[8]; [22]
  Plant response rating, Oilseed Rape: 50
[9]
  Plant response rating, Velvetleaf: 25
  Velvetleaf plant response rating: 20
[10]
  Crabgrass, Large plant response rating (0 to 100 scale): 100
  Crabgrass, Large plant response rating: 100
[11]
  Plant response rating (scale of 0 to 100 where 0 is no effect and 100 is complete control), Kochia: 80
  Kochia plant response rating: 85
[11]; [21]
  Plant response rating, Kochia: 90
[11]; [22]
  Plant response rating, Kochia: 90
[12]; [23]
  Plant response rating, Lambsquarters: 100
[12]; [16]
  Lambsquarters plant response rating: 100
[12]; [17]
  Plant response rating, Lambsquarters: 100
[12]; [18]
  Lambsquarters plant response rating: 100
[13]; [23]
  Plant response rating, Velvetleaf: 40
[13]; [16]
  Velvetleaf plant response rating: 65
[13]; [17]
  Plant response rating, Velvetleaf: 100
[13]; [18]
  Velvetleaf plant response rating: 100
[14]
  Plant response rating (scale of 0 to 100 where 0 is no effect and 100 is complete control), Barnyardgrass: 0
  Barnyardgrass plant response rating: 10
[14]; [21]
  Plant response rating, Barnyardgrass: 10
[14]; [22]
  Plant response rating, Barnyardgrass: 10
